In data set [1] the test system is Guinea-Pig Bladder (GPB) Cells. Nature of the data set: Membrane Hyperpolarization (MHP) assay, DiBAC(4)3 / FLIPR. The settings on record: for EC50: membrane hyperpolarization, GPB cells; for Emax: read-out: Maximal Response (% P1075), maximal steady-state hyperpolarization, normalized to 10 μM P1075 (100%); for Maximal Response (% P1075): maximal steady-state hyperpolarization, normalized to 10 μM P1075 (100%).
Procedure: Compounds were evaluated for potassium channel opening activity using primary cultured guinea-pig urinary bladder (GPB) cells.
For the preparation of urinary bladder smooth muscle cells, urinary bladders were removed from male guinea-pigs (Hartley, Charles River, Wilmington, Mass.) weighing 300-400 grams (g) and placed in ice-cold Ca^2+-free Krebs solution (Composition, millimolar (mM): KCl, 2.7; KH2PO4, 1.5; NaCl, 75; Na2HPO4, 9.6; Na2HPO4.7H2O, 8; MgSO4, 2; glucose, 5; HEPES, 10; pH 7.4). Cells were isolated by enzymatic dissociation (Klockner, U. and Isenberg, G., Pflugers Arch. (1985), 405, 329-339). The bladder was cut into small sections and incubated in 5 milliliters (mL) of the Kreb's solution containing 1 milligram per milliliter (mg/mL) of collagenase (Sigma, St. Louis, Mo.) and 0.2 mg/mL of pronase (Calbiochem, La Jolla, Calif.) with continuous stirring in a cell incubator for 30 minutes. The mixture was then centrifuged at 1300× g for 5 minutes, and the pellet resuspended in Dulbecco's phosphate buffered saline (PBS) (GIBCO, Gaithersburg, Md.) and recentrifuged to remove residual enzyme. The cell pellet was resuspended in 5 mL growth media (composition: Dulbecco's modified Eagle's medium supplemented with 10% fetal bovine serum, 100 units/mL penicillin, 100 units/mL streptomycin and 0.25 mg/mL amphotericin B) and further dissociated by pipetting the suspension through a flame-polished Pasteur pipette and passing it through a polypropylene mesh membrane (Spectrum, Houston, Tex.). The cell density was adjusted to 100,000 cells/mL by resuspension in growth media. Cells were plated in clear-bottomed black 96-well plates (Packard) for membrane potential studies at a density of 20,000 cells/well and maintained in a cell incubator with 90% air: 10% CO2 until confluent. Cells were confirmed to be of smooth muscle type by cytoskeletal staining using a monoclonal mouse anti human-α-smooth muscle actin (Biomeda, Foster City, Calif.).
Functional activity at potassium channels was measured by evaluating changes in membrane potential using the bis-oxonol dye DiBAC(4)3 (Molecular Probes) in a 96-well cell-based kinetic assay system using a Fluorescent Imaging Plate Reader (FLIPR) (K. S. Schroeder et al., J. Biomed. Screen., v. 1 pp. 75-81 (1996)). DiBAC(4)3 is an anionic potentiometric probe which partitions between cells and extracellular solution in a membrane potential-dependent manner. With increasing membrane potential (for example, K^+ depolarization), the probe further partitions into the cell; this is measured as an increase in fluorescence due to dye interaction with intracellular lipids and proteins. Conversely, decreasing membrane potential (hyperpolarization by potassium channel openers) evokes a decrease in fluorescence.
Confluent guinea-pig urinary bladder cells cultured in black clear-bottomed 96-well plates were rinsed twice with 200 mL assay buffer (composition, mM: HEPES, 20; NaCl, 120; KCl, 2; CaCl2, 2; MgCl2, 1; glucose, 5; pH 7.4 at 25° C.) containing 5 μM DiBAC(4)3 and incubated with 180 mL of the buffer in a cell incubator for 30 minutes at 37° C. to ensure dye distribution across the membrane. After recording the baseline fluorescence for 5 minutes, the reference or test compounds, prepared at 10 times the concentration in the assay buffer, were added directly to the wells. Changes in fluorescence were monitored for an additional 25 minutes.
Routinely, five concentrations of P1075 or test compounds (log or half-log dilutions) were evaluated and the maximal steady-state hyperpolarization values (expressed as % relative to P1075) plotted as a function of concentration. The EC50 (concentration that elicites 50% of the maximal response for the test sample) values were calculated by non-linear regression analysis using a four parameter sigmoidal equation. The maximal micromolar EC50 response of each compound (expressed as % relative to P1075) is reported.

For a further data set, the system named is Landrace Pig Bladder. Put plainly: Functional potassium channel opening activity in isolated bladder strips (field-stimulated twitch). The settings on record: for Index: ED50 for P1075 divided by ED50 for the test agonist, averaged over tissues; for Efficacy (% P1075): maximal efficacy relative to P1075, field stimulated bladder strips; for pD2: negative logarithm of ED50. An outline of the steps: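 Mucosa-free bladder strips from female Landrace pigs (9-30 kg) under 1.0 g preload in Krebs Ringer bicarbonate with 0.004 mM propranolol, field-stimulated at 0.05 Hz, 0.5 ms, 20 V after KCl priming. Cumulative concentration-response curves gave maximal efficacy as % of reference opener and ED50. Potency index = reference ED50/test ED50 in the same tissue, averaged across tissues.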

One may read the melting point as the temperature, or range, at which the solid turns liquid. As for `C[C@H]1OCC2=C(C1=O)[C@H](c1ccc(F)c(Br)c1)C1=C(COC1=O)N2` (relative stereo) [Example 85, (cis)-9-(3-bromo-4-fluorophenyl)-7-methyl-5,9-dihydro-3H-furo[3,4-b]pyrano[4,3-e]pyridine-1,8(4H,7H)-dione], the melting point was in the range of 234 to 239 °C.
On the same count and under the same terms, under `C[C@@H]1OCC(=O)C2=C1NC1=C(C(=O)OC1)[C@H]2c1ccc(F)c(Br)c1` (relative stereo) [Example 89, (cis)-9-(3-bromo-4-fluorophenyl)-5-methyl-5,9-dihydro-3H-furo[3,4-b]pyrano[4,3-e]pyridine-1,8(4H,7H)-dione] stands 260 to 263 °C.
Same read-out and setting: under `C[C@@H]1OC(=O)C2=C1NC1=C(C(=O)COC1)[C@H]2c1ccc(F)c(Br)c1` (relative stereo) [Example 91, (cis)-9-(3-bromo-4-fluorophenyl)-3-methyl-5,9-dihydro-3H-furo[3,4-b]pyrano[4,3-e]pyridine-1,8(4H,7H)-dione] stands 213 to 216 °C; under `C[C@@H]1OC(=O)C2=C1NC1=C(C(=O)COC1)[C@H]2c1ccc(F)c(Br)c1` (relative stereo) [Example 100, (cis)-9-(3-bromo-4-fluorophenyl)-3-methyl-5,9-dihydro-3H-furo[3,4-b]pyrano[4,3-e]pyridine-1,8(4H,7H)-dione], 230 to 233 °C.
On the same count and under the same terms, under `CCC1OC(=O)C2=C1NC1=C(C(=O)COC1)C2c1ccc(F)c(Br)c1` (single isomer, unassigned) [Example 95, 9-(3-bromo-4-fluorophenyl)-3-ethyl-5,9-dihydro-3H-furo[3,4-b]pyrano[4,3-e]pyridine-1,8(4H,7H)-dione] stands 161 to 162 °C.
As for `CCC1OC(=O)C2=C1NC1=C(C(=O)COC1)C2c1ccc(F)c(Br)c1` (single isomer, unassigned) [Example 96, 9-(3-bromo-4-fluorophenyl)-3-ethyl-5,9-dihydro-3H-furo[3,4-b]pyrano[4,3-e]pyridine-1,8(4H,7H)-dione], the melting point was 246 to 248 °C.
Molecule `CCCC1OC(=O)C2=C1NC1=C(C(=O)COC1)C2c1ccc(F)c(Br)c1` (single isomer, unassigned) [Example 97, 9-(3-bromo-4-fluorophenyl)-3-propyl-5,9-dihydro-3H-furo[3,4-b]pyrano[4,3-e]pyridine-1,8(4H,7H)-dione] returned a melting point of 206 to 208 °C.
`CCCC1OC(=O)C2=C1NC1=C(C(=O)COC1)C2c1ccc(F)c(Br)c1` (single isomer, unassigned) [Example 98, 9-(3-bromo-4-fluorophenyl)-3-propyl-5,9-dihydro-3H-furo[3,4-b]pyrano[4,3-e]pyridine-1,8(4H,7H)-dione] came in with a melting point of 219 to 220 °C.
As usually defined, the EC50 is the concentration at which the effect is half-maximal. On to `CN1CC(=O)C2=C(C1)NC1=C(C(=O)CCC1)C2c1ccc(F)c(Br)c1.Cl` (centres unmarked) [Example 3, 5-(3-bromo-4-fluorophenyl)-2-methyl-2,3,5,8,9,10-hexahydrobenzo[b][1,7]naphthyridine-4,6(1H, 7H)-dione Hydrochloride], for which the melting point was 248 to 250 °C. Further, in data set [1] (Cavia porcellus), the midpoint of the response, the EC50, lay at 27 µM and the Emax was determined as 41%.
Taken in the same sequence, the figures for `O=C1COCC2=C1C(c1ccc(F)c(Br)c1)C1=C(CNC1=O)N2` (centres unmarked) [Example 27, 9-(3-bromo-4-fluorophenyl)-2,3,5,9-tetrahydropyrano[3,4-b]pyrrolo[3,4-e]pyridine-1,8(4H,7H)-dione] were greater than 260 °C, 0.97 µM and 87%.
Taken in the same sequence, the figures for `CC1(C)CCC2=C(C1=O)C(c1ccc(F)c(Br)c1)C1=C(COCC1=O)N2` (centres unmarked) [Example 41, 5-(3-bromo-4-fluorophenyl)-7,7-dimethyl-5,8,9,10-tetrahydro-1H-pyrano[3,4-b]quinoline-4,6(3H,7H)-dione] were greater than 260 °C, 0.071 µM and 66%.
On to `Cc1ccc(C2C3=C(COCC3=O)NC3=C2C(=O)COC3)cc1Br` [Example 53, 5-(3-bromo-4-methylphenyl)-5,10-dihydro-1H,3H-dipyrano[3,4-b:4,3-e]pyridine-4,6(7H,9H)-dione], for which, in data set [1], the “Maximal Response (% P1075)” value was 98 % P1075 and the EC50 was determined as 0.019 µM. In the data set with Landrace Pig Bladder, the Index is listed as 0.44, the “Efficacy (% P1075)” value stood at 100 % P1075 and the pD2 came out at 7.0.
Taken in the same sequence, the figures for `Cc1ccc(C2C3=C(COCC3=O)NC3=C2C(=O)COC3)cc1I` [Example 54, 5-(3-iodo-4-methylphenyl)-5,10-dihydro-1H,3H-dipyrano[3,4-b:4,3-e]pyridine-4,6(7H,9H)-dione] were 101 % P1075, 0.0095 µM, 0.48, 100 % P1075 and 6.9.
Take `O=C1COCC2=C1C(c1ccc(Br)c(Br)c1)C1=C(COCC1=O)N2` [Example 55, 5-(3,4-dibromonhenyl)-5,10-dihydro-1H,3H-dipyrano [3,4-b:4,3-e]pyridine-4,6(7H,9H)-dione]: in data set [1], the “Maximal Response (% P1075)” value is reported as 108 % P1075 and the midpoint of the response, the EC50, lay at 0.0039 µM. Moreover, in the data set with Landrace Pig Bladder, the Index is 0.35, the “Efficacy (% P1075)” value worked out at 80 % P1075 and the pD2 came to 6.2.
Taken in the same sequence, the figures for `O=C1COCC2=C1C(c1ccc(F)c(-c3ccco3)c1)C1=C(COCC1=O)N2` [Example 57, 5-[4-fluoro-3-(2-furyl)phenyl]-5,10-dihydro-1H,3H-dipyrano[3,4-b:4,3-e]pyridine-4,6(7H,9H)-dione] were 69 % P1075, 4 µM, 0.090, 45 % P1075 and 5.6.
`O=C1COCC2=C1C(c1cc(Br)c(F)cc1O)C1=C(COCC1=O)N2` [Example 58, 5-(5-bromo-4-fluoro-2-hydroxyphenyl)-5,10-dihydro-1H,3H-dipyrano[3,4-b:4,3-e]pyridine-4,6(7H,9H)-dione]: in data set [1], the “Maximal Response (% P1075)” value is given as 94 % P1075 and the midpoint of the response, the EC50, lay at 0.046 µM. Further, in the data set with Landrace Pig Bladder, the Index stood at 0.19, the “Efficacy (% P1075)” value worked out at 84 % P1075 and the pD2 turned out to be 6.2.
Taken in the same sequence, the figures for `Cc1ccc(C2C3=C(COCC3=O)NC3=C2C(=O)COC3)cc1[N+](=O)[O-]` [Example 59, 5-(4-methyl-3-nitrophenyl)-5,10-dihydro-1H,3H-dipyrano[3,4-b:4,3-e]pyridine-4,6(7H,9H)-dione] were 94 % P1075, 0.099 µM, 0.17, 73 % P1075 and 5.9.
In the same order, the values of `C=C(C)c1cc(C2C3=C(COCC3=O)NC3=C2C(=O)COC3)ccc1F` [Example 64, 5-(4-fluoro-3-isopropenylphenyl)-5,10-dihydro-1H,3H-dipyrano[3,4-b:4,3-e]pyridine-4,6(7H,9H)-dione] are 84 % P1075, 0.25 µM, 0.031, 95 % P1075 and 5.5.
As to `CC1(C)OC(=O)C2=C1NC1=C(C(=O)COC1)C2c1ccc(F)c(Br)c1` (centres unmarked) [Example 99, 9-(3-bromo-4-fluorophenyl)-3,3-dimethyl-5,9-dihydro-3H-furo[3,4-b]pyrano[4,3-e]pyridine-1,8(4H,7H)-dione], the melting point was greater than 260 °C.
